# Measurements published in patent US10537575B2, “Phosphodiesterase inhibitors to repair brain and/or retinal injury in human newborns” (priority 2016, dated 2020).
# Test system: Long-Evans rat pups (neonatal HI)
# Assay: White matter myelination, oligodendrocytes and neuroinflammation after neonatal HI
# Type: in vivo
# Conditions: P30
# Method: Neonatal HI was induced in male Long-Evans rat pups at postnatal day 10 (P10) by left common carotid ligation followed by 2-hour exposure to 8% oxygen. Sham operated rat pups served as control. […] At P30, rats were sacrificed and their brains extracted. Hematoxylin and eosin staining was performed to analyze the structure of the myelin sheath. Olig2 and CC-1 immunostaining were performed to assess the proportion of mature oligodendrocyte to total oligodendrocytes. GFAP, Iba1, and Mac2 immunostaining was used to label reactive astrocytes and activated microglia. Collagen IV was used to investigate microvessels. Corpus callosum and left external capsule were the 2 regions where these markers were assessed to evaluate “white matter”.
compound,measurement,setting,value
CCCc1nn(C)c2c(=O)[nH]c(-c3cc(S(=O)(=O)N4CCN(C)CC4)ccc3OCC)nc12 [sildenafil],myelin sheath thickness in corpus callosum and left external capsule,"HI, all dosage",reverted the myelin sheath thickness back to levels comparable to sham vehicle rat animals
same,microvessel density in the white matter,,no changes
same,number of total and mature oligodendrocytes in the left external capsule,after sildenafil,no changes
same,reactive astrocytosis and microgliosis in the corpus callosum and left external capsule,higher doses of sildenafil,significant reduction
same,number of mature oligodendrocytes in the corpus callosum,sildenafil 50 mg/kg,significantly increased
same,number of total oligodendrocytes in the corpus callosum,sildenafil 50 mg/kg,significantly increased
